Source: US20230114728A1 (Venatorx Pharmaceuticals, Inc., priority 2019, published 2023)
Converted amounts (≈) assume the structure as drawn.

Assays:
P. aeruginosa PBP3 = biological target: T1, P. aeruginosa PBP3 (Pseudomonas aeruginosa, UniProt G3XD46); experiment: Bocillin-FL fluorescence polarization competition binding assay, P. aeruginosa PBP3; conditions: fluorescence polarization competition binding assay using Bocillin-FL
T1 construct: made in house
Procedure, shortened: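 Inhibitor competition with Bocillin-FL for P. aeruginosa PBP3 was followed by fluorescence polarization on a Cytation3 (BioTek) reader, using g-factor 0.96, 490 nm excitation and 520 nm emission. The enzyme was at 0.75 μM and the probe at 0.1 μM in Hepes/NaCl/glycerol buffer, 80 μl per well. FP was recorded immediately after probe addition for up to 60 minutes. Potency was expressed as EC50, the concentration that reduces bound probe by 50%.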

[1] = Bocillin-FL fluorescence polarization competition binding assay, A. baumannii PBP3; conditions: fluorescence polarization competition binding assay using Bocillin-FL; column 3; read-out: 4. baumannii PBP1a Potency
Procedure, shortened: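 A. baumannii PBP2 (2.5 μM) and PBP3 (0.2 μM) were run in 25 mM Tris pH 8.0 buffer with Tween 20; E. coli PBP3 (1.5 μM) and N. gonorrhoeae PBP2 ([…]) in 50 mM Hepes pH 8.0 buffer.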

N. gonorrhoeae WHO Q = experiment: Liquid broth MIC in Fastidious broth; type: cell-based; conditions: Neisseria gonorrhoeae, read-out: Minimum Inhibitory Concentration, N. gonorrhoeae WHO Q
Procedure, shortened: (§1)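 MIC = lowest concentration giving <10% growth relative to untreated wells, scored by eye after ~24 h at 36 °C, 5% CO2. Strains carry mosaic PBP2; inoculum 5×10^5 CFU/mL in Fastidious broth with 2-fold serial compound dilutions.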

N. gonorrhoeae WHO Z = experiment: Liquid broth MIC in Fastidious broth; type: cell-based; conditions: Neisseria gonorrhoeae, read-out: Minimum Inhibitory Concentration, N. gonorrhoeae WHO Z
Procedure, shortened: as §1

T1 sequence (G3XD46 whole entry): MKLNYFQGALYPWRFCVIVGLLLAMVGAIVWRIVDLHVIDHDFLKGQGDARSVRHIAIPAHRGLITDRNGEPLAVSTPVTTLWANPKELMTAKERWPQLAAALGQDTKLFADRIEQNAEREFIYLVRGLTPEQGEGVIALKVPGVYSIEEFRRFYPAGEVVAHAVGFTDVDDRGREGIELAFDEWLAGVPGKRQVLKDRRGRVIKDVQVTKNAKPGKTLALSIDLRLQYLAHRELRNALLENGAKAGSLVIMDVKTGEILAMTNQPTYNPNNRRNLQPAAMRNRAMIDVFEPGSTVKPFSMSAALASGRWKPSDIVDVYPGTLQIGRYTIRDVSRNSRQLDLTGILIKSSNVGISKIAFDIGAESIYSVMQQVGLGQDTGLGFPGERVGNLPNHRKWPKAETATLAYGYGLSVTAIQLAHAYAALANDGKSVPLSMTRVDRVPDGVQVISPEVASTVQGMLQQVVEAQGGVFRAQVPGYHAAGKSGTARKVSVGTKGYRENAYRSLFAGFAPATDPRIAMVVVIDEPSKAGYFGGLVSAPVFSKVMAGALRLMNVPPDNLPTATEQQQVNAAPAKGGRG

Row | SMILES | P. aeruginosa PBP3 Potency (P. aeruginosa PBP3) | EC50 [1] | MIC (N. gonorrhoeae WHO Q) | MIC (N. gonorrhoeae WHO Z)
1 | NCCN1CCN(C(=O)N[C@@H](C(=O)N[C@H]2Cc3cccc(C(=O)O)c3OB2O)c2ccc(C(=O)O)cc2)C(=O)C1=O (single isomer, unassigned) [Example 84] | D (D represents a potency <10 μM) | 30 to 100 µM | 16 to 32 µg/mL (≈ 28.2 to 56.4 µM) | 16 to 32 µg/mL (≈ 28.2 to 56.4 µM)
2 | NCCN1CCN(C(=O)N[C@H](C(=O)N[C@H]2Cc3cccc(C(=O)O)c3OB2O)c2ccc(O)cc2Cl)C(=O)C1=O (single isomer, unassigned) [Example 85] | C (C represents a potency between 10 and 30 μM) | > 100 µM | > 64 µg/mL | > 64 µg/mL
3 | NCCN1CCN(C(=O)N[C@@H](C(=O)N[C@H]2Cc3cccc(C(=O)O)c3OB2O)c2ccc(O)cc2Cl)C(=O)C1=O (single isomer, unassigned) [Example 86] | D (D represents a potency <10 μM) | 10 to 30 µM | > 64 µg/mL | > 64 µg/mL
4 | O=C(O)c1ccc(C(NC(=O)N2CCN(CCNC(=O)c3ccc(O)c(O)c3Cl)C(=O)C2=O)C(=O)N[C@H]2Cc3ccc(F)c(C(=O)O)c3OB2O)cc1F (stereo partly drawn) [Example 11, (3R)-3-(2-(4-carboxy-3-fluorophenyl)-2-(4-(2-(2-chloro-3,4-dihydroxybenzamido)ethyl)-2,3-dioxopiperazine-1-carboxamido)acetamido)-7-fluoro-2-hydroxy-3,4-dihydro-2H-benzo[e][1,2]oxaborinine-8-carboxylic acid] | – | 10 to 30 µM | – | 16 to 32 µg/mL (≈ 20.7 to 41.4 µM)
5 | CCN1CCN(C(=O)NC(C(=O)N[C@H]2Cc3ccc(F)c(C(=O)O)c3OB2O)c2ccc(C(=O)O)cc2)C(=O)C1=O (stereo partly drawn) [Example 15, (3R)-3-(2-(4-carboxyphenyl)-2-(4-ethyl-2,3-dioxopiperazine-1-carboxamido)acetamido)-7-fluoro-2-hydroxy-3,4-dihydro-2H-benzo[e][1,2]oxaborinine-8-carboxylic acid] | D (D represents a potency <10 μM) | > 100 µM | – | 1 to 2 µg/mL (≈ 1.75 to 3.51 µM)
6 | CS(=O)(=O)N1CCN(C(=O)NC(C(=O)N[C@H]2Cc3ccc(F)c(C(=O)O)c3OB2O)c2ccc(O)c(O)c2Cl)C1=O (stereo partly drawn) [Example 23, (3R)-3-(2-(2-chloro-3,4-dihydroxyphenyl)-2-(3-(methylsulfonyl)-2-oxoimidazolidine-1-carboxamido)acetamido)-7-fluoro-2-hydroxy-3,4-dihydro-2H-benzo[e][1,2]oxaborinine-8-carboxylic acid] | D (D represents a potency <10 μM) | 30 to 100 µM | – | –
7 | NC(C(=O)N[C@H]1Cc2ccc(F)c(C(=O)O)c2OB1O)c1c(F)cc(O)c(O)c1Cl (stereo partly drawn) [Example 25, (3R)-3-(2-amino-2-(2-chloro-6-fluoro-3,4-dihydroxyphenyl)acetamido)-7-fluoro-2-hydroxy-3,4-dihydro-2H-benzo[e][1,2]oxaborinine-8-carboxylic acid] | B (B represents a potency between 30 μM and 500 μM inclusive) | > 100 µM | – | –
8 | CCN1CCN(C(=O)NC(C(=O)N[C@H]2Cc3cccc(C(=O)O)c3OB2O)c2ccc(C(=O)O)c(F)c2)C(=O)C1=O (stereo partly drawn) [Example 31, (3R)-3-(2-(4-carboxy-3-fluorophenyl)-2-(4-ethyl-2,3-dioxopiperazine-1-carboxamido)acetamido)-2-hydroxy-3,4-dihydro-2H-benzo[e][1,2]oxaborinine-8-carboxylic acid] | D (D represents a potency <10 μM) | < 10 µM | – | 1 to 2 µg/mL (≈ 1.75 to 3.51 µM)
9 | CCN1CCN(C(=O)NC(C(=O)N[C@H]2Cc3ccc(F)c(C(=O)O)c3OB2O)c2c(F)cc(O)c(O)c2F)C(=O)C1=O (stereo partly drawn) [Example 36, (3R)-3-(2-(2,6-difluoro-3,4-dihydroxyphenyl)-2-(4-ethyl-2,3-dioxopiperazine-1-carboxamido)acetamido)-7-fluoro-2-hydroxy-3,4-dihydro-2H-benzo[e][1,2]oxaborinine-8-carboxylic acid] | D (D represents a potency <10 μM) | 10 to 30 µM | – | –
10 | O=C(O)c1c(F)ccc2c1OB(O)[C@@H](NC(=O)C(NC(=O)N1CCN(CCF)C(=O)C1=O)c1c(F)cc(O)c(O)c1F)C2 (stereo partly drawn) [Example 37, (3R)-3-(2-(2,6-difluoro-3,4-dihydroxyphenyl)-2-(4-(2-fluoroethyl)-2,3-dioxopiperazine-1-carboxamido)acetamido)-7-fluoro-2-hydroxy-3,4-dihydro-2H-benzo[e][1,2]oxaborinine-8-carboxylic acid] | D (D represents a potency <10 μM) | 30 to 100 µM | – | –
11 | NCCCN1CCN(C(=O)NC(C(=O)N[C@H]2Cc3cccc(C(=O)O)c3OB2O)c2ccc(C(=O)O)cc2)C(=O)C1=O (stereo partly drawn) [Example 39, (3R)-3-(2-(4-(3-aminopropyl)-2,3-dioxopiperazine-1-carboxamido)-2-(4-carboxyphenyl)acetamido)-2-hydroxy-3,4-dihydro-2H-benzo[e][1,2]oxaborinine-8-carboxylic acid] | D (D represents a potency <10 μM) | 30 to 100 µM | – | –
12 | CCN1CCN(C(=O)NC(C(=O)N[C@H]2Cc3ccc(F)c(C(=O)O)c3OB2O)c2cc(F)c(O)c(O)c2Cl)C(=O)C1=O (stereo partly drawn) [Example 42, (3R)-3-(2-(2-chloro-5-fluoro-3,4-dihydroxyphenyl)-2-(4-ethyl-2,3-dioxopiperazine-1-carboxamido)acetamido)-7-fluoro-2-hydroxy-3,4-dihydro-2H-benzo[e][1,2]oxaborinine-8-carboxylic acid] | D (D represents a potency <10 μM) | 30 to 100 µM | – | –
13 | O=C(O)c1ccc(C(NC(=O)c2c(F)cc(O)c(O)c2Cl)C(=O)N[C@H]2Cc3ccc(F)c(C(=O)O)c3OB2O)cc1F (stereo partly drawn) [Example 71, (3R)-3-(2-(4-carboxy-3-fluorophenyl)-2-(2-chloro-6-fluoro-3,4-dihydroxybenzamido)acetamido)-7-fluoro-2-hydroxy-3,4-dihydro-2H-benzo[e][1,2]oxaborinine-8-carboxylic acid] | D (D represents a potency <10 μM) | > 100 µM | > 64 µg/mL | > 64 µg/mL
14 | CCN1CCN(C(=O)NC(C(=O)N[C@H]2Cc3cccc(C(=O)O)c3OB2O)c2cccc(NC(=O)c3ccc(O)c(O)c3Cl)c2)C(=O)C1=O (stereo partly drawn) [Example 73, (3R)-3-(2-(3-(2-chloro-3,4-dihydroxybenzamido)phenyl)-2-(4-ethyl-2,3-dioxopiperazine-1-carboxamido)acetamido)-2-hydroxy-3,4-dihydro-2H-benzo[e][1,2]oxaborinine-8-carboxylic acid] | D (D represents a potency <10 μM) | < 10 µM | > 64 µg/mL | > 64 µg/mL
15 | CCN1CCN(C(=O)NC(C(=O)N[C@H]2Cc3cccc(C(=O)O)c3OB2O)c2ccc(O)c(NC(=O)c3ccc(O)c(O)c3Cl)c2)C(=O)C1=O (stereo partly drawn) [Example 74, (3R)-3-(2-(3-(2-chloro-3,4-dihydroxybenzamido)-4-hydroxyphenyl)-2-(4-ethyl-2,3-dioxopiperazine-1-carboxamido)acetamido)-2-hydroxy-3,4-dihydro-2H-benzo[e][1,2]oxaborinine-8-carboxylic acid] | D (D represents a potency <10 μM) | < 10 µM | > 64 µg/mL | > 64 µg/mL
16 | CC(C)(C)[C@@H](NC(=O)N1CCN(CCNC(=O)c2c(F)cc(O)c(O)c2Cl)C(=O)C1=O)C(=O)N[C@H]1Cc2ccc(F)c(C(=O)O)c2OB1O [Example 80, (R)-3-((R)-2-(4-(2-(2-chloro-6-fluoro-3,4-dihydroxybenzamido)ethyl)-2,3-dioxopiperazine-1-carboxamido)-3,3-dimethylbutanamido)-7-fluoro-2-hydroxy-3,4-dihydro-2H-benzo[e][1,2]oxaborinine-8-carboxylic acid] | D (D represents a potency <10 μM) | < 10 µM | > 64 µg/mL | > 64 µg/mL
